These results are taken from PMC8770593 (Nature Communications, 2022).

Substitutions are numbered along the chain they refer to. Where “and” joins values, the source holds several entries; their conditions need not be identical. Equal values may be shown once. Read-outs that look alike come from different tables or passages of the source.

The target of assay [1] is T1, α1BAR-α2C(L^45.52) chimera (V197^45.52→L) (Homo sapiens, UniProt P35368, V197L).
T1 sequence (P35368 35-520 V197L): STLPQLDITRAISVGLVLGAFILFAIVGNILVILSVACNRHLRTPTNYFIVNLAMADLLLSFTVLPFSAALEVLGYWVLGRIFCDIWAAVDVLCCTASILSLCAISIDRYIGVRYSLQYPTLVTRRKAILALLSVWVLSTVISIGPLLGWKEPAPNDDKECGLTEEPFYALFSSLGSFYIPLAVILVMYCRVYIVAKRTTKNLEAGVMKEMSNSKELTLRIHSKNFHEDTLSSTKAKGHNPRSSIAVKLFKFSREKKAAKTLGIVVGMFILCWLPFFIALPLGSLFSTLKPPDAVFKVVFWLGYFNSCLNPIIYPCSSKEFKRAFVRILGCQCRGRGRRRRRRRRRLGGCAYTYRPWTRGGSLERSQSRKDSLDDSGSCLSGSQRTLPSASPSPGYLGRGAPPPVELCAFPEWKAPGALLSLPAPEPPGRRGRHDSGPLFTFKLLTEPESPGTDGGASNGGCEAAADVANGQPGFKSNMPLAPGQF
Kind of assay: HTRF ligand-binding assay on whole transfected HEK293T/17 cells (QAPB saturation; competition with QAPB tracer).

The target in another assay is T2, α1BAR-α2C(YLLY) chimera (Homo sapiens, UniProt P35368, A122L/L314Y/V197L/W121Y).
T2 sequence (P35368 35-520 W121Y/A122L/V197L/L314Y): T1 sequence (P35368 35-520 V197L) with W87Y, A88L, L280Y
The assay is described as above.

The target in assay [2] is α1BAR-α2C(YLLY;ECL2) chimera (Homo sapiens, UniProt P35368, A122L/DEL188-193/E186Y/E194Q/E199D/F202W/G179P/I178F/INS181VSLYRQP/K185A/L182D/L314Y/P201T/T198N/V197L/W121Y/W184A). The description is as above. Conditions: competition with 50 nM QAPB tracer, whole cells, mean; read-out: pKi (competition binding) (converted).
Chain of α1BAR-α2C(YLLY;ECL2) chimera (P35368 with tags, fused parts or gaps with the stated changes): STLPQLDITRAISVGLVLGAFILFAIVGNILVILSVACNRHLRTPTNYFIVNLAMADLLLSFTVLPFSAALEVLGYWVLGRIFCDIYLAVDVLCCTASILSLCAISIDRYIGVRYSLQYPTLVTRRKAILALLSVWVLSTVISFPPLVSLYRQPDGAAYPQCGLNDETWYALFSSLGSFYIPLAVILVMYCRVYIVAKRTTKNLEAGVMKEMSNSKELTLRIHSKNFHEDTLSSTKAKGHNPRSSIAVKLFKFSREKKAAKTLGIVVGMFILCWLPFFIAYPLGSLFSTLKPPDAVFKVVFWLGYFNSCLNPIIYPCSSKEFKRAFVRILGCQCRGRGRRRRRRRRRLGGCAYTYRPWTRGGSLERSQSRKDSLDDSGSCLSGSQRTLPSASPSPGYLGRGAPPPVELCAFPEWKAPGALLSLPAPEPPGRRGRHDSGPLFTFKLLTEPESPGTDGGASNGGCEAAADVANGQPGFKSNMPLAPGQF
The test system of the next assay is α2ARs over α1ARs. Conditions: reported; cited from earlier work.
The next assay relates to α2CAR L128^3.29→A. On the set-up: method as in PMID 31801061. Conditions: L128^3.29→A in α2CAR vs wild type; cited from earlier work.
A further assay deals with T3, wild-type α1BAR (Homo sapiens, UniProt P35368).
T3 sequence (P35368 35-520 limits assumed): T1 sequence (P35368 35-520 V197L) with L163V
Kind of assay: HTRF ligand-binding assay on whole transfected HEK293T/17 cells (QAPB saturation; competition with QAPB tracer).

The target of a further assay is T4, wild-type α2CAR (Homo sapiens, UniProt P18825).
T4 sequence (P18825 37-462 limits assumed): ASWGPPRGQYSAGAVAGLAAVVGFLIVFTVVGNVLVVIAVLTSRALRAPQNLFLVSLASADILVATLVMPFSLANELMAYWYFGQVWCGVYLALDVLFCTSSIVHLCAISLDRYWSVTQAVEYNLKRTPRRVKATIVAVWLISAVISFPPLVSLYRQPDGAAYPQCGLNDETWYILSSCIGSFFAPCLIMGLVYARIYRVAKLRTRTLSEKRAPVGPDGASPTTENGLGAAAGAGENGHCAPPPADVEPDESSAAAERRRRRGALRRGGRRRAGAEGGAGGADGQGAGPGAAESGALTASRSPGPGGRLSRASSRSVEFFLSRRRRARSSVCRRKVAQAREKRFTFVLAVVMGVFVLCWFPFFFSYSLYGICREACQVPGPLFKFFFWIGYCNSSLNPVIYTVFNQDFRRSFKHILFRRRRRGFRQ
The assay is described as above.

The target in assay [3] is α1BAR-α2C(YLLY;N^2.64) chimera (Homo sapiens, UniProt P35368, A122L/L105N/L314Y/V197L/W121Y). Described as above.
Chain of α1BAR-α2C(YLLY;N^2.64) chimera (P35368 35-520 L105N/W121Y/A122L/V197L/L314Y): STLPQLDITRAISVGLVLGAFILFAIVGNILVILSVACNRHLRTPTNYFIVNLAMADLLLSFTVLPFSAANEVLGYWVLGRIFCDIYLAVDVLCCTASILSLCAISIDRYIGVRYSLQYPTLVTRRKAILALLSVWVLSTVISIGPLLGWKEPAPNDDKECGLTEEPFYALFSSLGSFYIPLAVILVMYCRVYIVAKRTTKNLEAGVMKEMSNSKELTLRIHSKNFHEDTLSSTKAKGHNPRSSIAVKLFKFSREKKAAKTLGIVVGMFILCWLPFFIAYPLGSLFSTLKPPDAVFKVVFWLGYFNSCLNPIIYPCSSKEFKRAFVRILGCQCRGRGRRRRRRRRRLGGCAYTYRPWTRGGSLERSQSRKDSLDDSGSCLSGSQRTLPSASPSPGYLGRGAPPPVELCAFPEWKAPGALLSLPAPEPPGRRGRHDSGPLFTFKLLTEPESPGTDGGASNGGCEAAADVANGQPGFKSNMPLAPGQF

With `CCS(=O)(=O)N1CCC[C@@H]2CN3CCc4cc(OC)ccc4[C@@H]3C[C@@H]21` [RS79948], the “higher affinity compared to wild-type α1BAR” value in assay [1] (V197^45.52→L vs wild-type α1BAR) is 2 fold. Also, the Ki in assay [1] (competition with 2 nM QAPB tracer, whole cells, mean, read-out: pKi (competition binding) (converted)) is 589 nM; in assay [1] (construct α1BAR-α2C(L45.52), competition with RS79948 against QAPB tracer, one value per experiment date, read-out: Calculated pKi values (converted)), 594 nM and 645 nM and 549 nM; on α1BAR-α2C(YLLY) chimera (competition with 50 nM QAPB tracer, whole cells, mean, read-out: pKi (competition binding) (converted)) it was 1.66 nM; on α1BAR-α2C(YLLY) chimera (construct α1BAR-α2C(YLLY), competition with RS79948 against QAPB tracer, one value per experiment date, read-out: Calculated pKi values (converted)), 0.869 nM and 1.72 nM and 1.67 nM and 3.15 nM; in assay [2] it was 9.55 nM; at wild-type α1BAR (Calculated pKi values, construct α1BAR, competition with RS79948 against QAPB tracer, one value per experiment date) it was 1270 nM and 1110 nM and 1070 nM and 1900 nM and 1250 nM and 1510 nM and 981 nM. The Ki is 1260 nM at wild-type α1BAR (pKi (competition binding), competition with 2 nM QAPB tracer, whole cells, mean); 0.124 nM and 0.311 nM and 0.324 nM and 0.183 nM and 0.189 nM at wild-type α2CAR (Calculated pKi values, construct α2CAR, competition with RS79948 against QAPB tracer, one value per experiment date); 0.214 nM on wild-type α2CAR (pKi (competition binding), competition with 50 nM QAPB tracer, whole cells, mean); 1.38 nM in assay [3]. For the same molecule, on α1BAR-α2C(YLLY) chimera (α1BAR-α2C(YLLY) vs wild-type α1BAR), the “affinity improved compared to wild-type α1BAR” value is listed as “almost three orders of magnitude”. In addition, the “selectivity for α2ARs over α1ARs” value with α2ARs over α1ARs is ~ 10,000 fold. Further, the “decrease of the ability to antagonize agonist-induced signaling” value with α2CAR L128^3.29→A is recorded as 50 fold.
